# Laboratory results reported in patent publication US11370774B2, “Substituted benzofuran, benzopyrrole, benzothiophene, and structurally related complement inhibitors” (BioCryst Pharmaceuticals, Inc., priority 2018, dated 2022).
# Target: Factor D (Homo sapiens (Human), UniProt P00746)
# Assay: Factor D esterolytic assay (Z-Lys-SBzl substrate, DTNB, 405 nm)
# Assay type: biochemical
# Settings: Z-Lys-SBzl 1.29 mM, pH 7.5, 10% DMSO, tested a minimum of three times, read-out: Measured Ki (IC50) Value for Compounds: IC50
# How it was run: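 Thioester hydrolysis (Z-Lys-SBzl, 1.29 mM) by human Factor D ([…]) detected through DTNB color at 405 nm over 600 sec, minus 690 nm background. Buffer: 100 mM HEPES pH 7.5, 500 mM NaCl, 10% DMSO; optional room-temperature preincubation before substrate. IC50 derived from percent rate inhibition; at least three runs.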
# Chain of Factor D (P00746 26-253): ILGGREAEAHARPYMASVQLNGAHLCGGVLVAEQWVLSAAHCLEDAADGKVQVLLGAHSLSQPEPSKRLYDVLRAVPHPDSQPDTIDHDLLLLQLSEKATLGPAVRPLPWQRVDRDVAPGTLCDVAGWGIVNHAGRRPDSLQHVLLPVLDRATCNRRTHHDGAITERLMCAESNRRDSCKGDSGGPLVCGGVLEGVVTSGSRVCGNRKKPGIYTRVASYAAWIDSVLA
row,SMILES,IC50
1,"COc1ccc(CC(=O)O)c(OCc2cc(-c3cccc(CN)c3)c3occ(C(F)(F)F)c3c2)c1 [Compound 488c, 2-(2-((7-(3-(aminomethyl)phenyl)-3-(trifluoromethyl)benzofuran-5-yl)methoxy)-4-methoxyphenyl)acetic acid]",< 1000 nM
2,"NCc1nccc(-c2cc(COc3cc(F)ccc3CC(=O)O)cc3c(C(F)(F)F)coc23)c1F [Compound 490c, 2-(2-((7-(2-(aminomethyl)-3-fluoropyridin-4-yl)-3-(trifluoromethyl)benzofuran-5-yl)methoxy)-4-fluorophenyl)acetic acid]",< 1000 nM
3,"NCc1cc(-c2cc(COc3cc(F)ccc3CC(=O)O)cc3c(C(F)(F)F)coc23)ccn1 [Compound 491b, 2-(2-((7-(2-(aminomethyl)pyridin-4-yl)-3-(trifluoromethyl)benzofuran-5-yl)methoxy)-4-fluorophenyl)acetic acid]",< 1000 nM
4,"CC(C)n1ccc2c(-c3cccc(CN)c3F)cc(COc3ccc(F)cc3CC(=O)O)cc21 [Compound 494b, 2-(2-((4-(3-(aminomethyl)-2-fluorophenyl)-1-isopropyl-1H-indol-6-yl)methoxy)-5-fluorophenyl)acetic acid]",< 1000 nM
5,"CC(C)n1ccc2c(-c3ccnc(CN)c3F)cc(COc3cc(F)ccc3CC(=O)O)cc21 [Compound 495d, 2-(2-((4-(2-(aminomethyl)-3-fluoropyridin-4-yl)-1-isopropyl-1H-indol-6-yl)methoxy)-4-fluorophenyl)acetic acid]",< 1000 nM
6,"CC(C)n1ccc2c(-c3ccnc(CN)c3)cc(COc3cc(F)ccc3CC(=O)O)cc21 [Compound 496c, 2-(2-((4-(2-(aminomethyl)pyridin-4-yl)-1-isopropyl-1H-indol-6-yl)methoxy)-4-fluorophenyl)acetic acid]",< 1000 nM
7,"COc1ccc(CC(=O)O)c(OCc2cc(-c3ccnc(CN)c3F)c3occ(C(F)(F)F)c3c2)c1 [Compound 498c, 2-(2-((7-(2-(aminomethyl)-3-fluoropyridin-4-yl)-3-(trifluoromethyl)benzofuran-5-yl)methoxy)-4-methoxyphenyl)acetic acid]",< 1000 nM
8,"NCc1cccc(-c2cc(COc3ccc(F)cc3CC(=O)O)cc3c(C(F)(F)F)coc23)c1 [Compound 500c, 2-(2-((7-(3-(aminomethyl)phenyl)-3-(trifluoromethyl)benzofuran-5-yl)methoxy)-5-fluorophenyl)acetic acid]",< 1000 nM
9,"NCc1cc(-c2cc(COc3cc(F)ccc3CC(=O)O)c(F)c3ccoc23)ccn1 [Compound 503c, 2-(2-((7-(2-(aminomethyl)pyridin-4-yl)-4-fluorobenzofuran-5-yl)methoxy)-4-fluorophenyl)acetic acid]",< 1000 nM
10,"NCc1cc(-c2cc(COc3c(F)cccc3CC(=O)O)cc3ccoc23)ccn1 [Compound 504c, 2-(2-((7-(2-(aminomethyl)pyridin-4-yl)benzofuran-5-yl)methoxy)-3-fluorophenyl)acetic acid]",< 1000 nM
11,"CC(=O)c1ccc(CC(=O)O)c(OCc2cc(-c3ccnc(CN)c3F)c3occc3c2)c1 [Compound 505d, 2-(4-acetyl-2-((7-(2-(aminomethyl)-3-fluoropyridin-4-yl)benzofuran-5-yl)methoxy)phenyl)acetic acid]",< 1000 nM
12,"CC(=O)c1ccc(CC(=O)O)c(OCc2cc(-c3cccc(CN)c3)c3occ(C(F)(F)F)c3c2)c1 [Compound 506e, 2-(4-acetyl-2-((7-(3-(aminomethyl)phenyl)-3-(trifluoromethyl)benzofuran-5-yl)methoxy)phenyl)acetic acid]",< 1000 nM
13,"COc1cccc(CC(=O)O)c1OCc1cc(-c2cccc(CN)c2F)c2occc2c1 [Compound 508b, 2-(2-((7-(3-(aminomethyl)-2-fluorophenyl)benzofuran-5-yl)methoxy)-3-methoxyphenyl)acetic acid]",< 1000 nM
14,"NCc1nccc(-c2cc(COc3cc(F)ccc3CC(=O)O)c(F)c3ccoc23)c1F [Compound 509d, 2-(2-((7-(2-(aminomethyl)-3-fluoropyridin-4-yl)-4-fluorobenzofuran-5-yl)methoxy)-4-fluorophenyl)acetic acid]",< 1000 nM
15,"NCc1nccc(-c2cc(COc3c(F)cccc3CC(=O)O)cc3ccoc23)c1F [Compound 510d, 2-(2-((7-(2-(aminomethyl)-3-fluoropyridin-4-yl)benzofuran-5-yl)methoxy)-3-fluorophenyl)acetic acid]",< 1000 nM
16,"CC(C)n1ccc2c(-c3ccnc(CN)c3F)cc(COc3ccc(F)cc3CC(=O)O)cc21 [Compound 513c, 2-(2-((4-(2-(aminomethyl)-3-fluoropyridin-4-yl)-1-isopropyl-1H-indol-6-yl)methoxy)-5-fluorophenyl)acetic acid]",< 1000 nM
17,"COCc1cc2cc(COc3cc(F)ccc3CC(=O)O)cc(-c3ccnc(CN)c3F)c2o1 [Compound 514d, 2-(2-((7-(2-(aminomethyl)-3-fluoropyridin-4-yl)-2-(methoxymethyl)benzofuran-5-yl)methoxy)-4-fluorophenyl)acetic acid]",< 1000 nM
18,"COCc1cc2cc(COc3cc(F)ccc3CC(=O)O)cc(-c3ccnc(CN)c3)c2o1 [Compound 515c, 2-(2-((7-(2-(aminomethyl)pyridin-4-yl)-2-(methoxymethyl)benzofuran-5-yl)methoxy)-4-fluorophenyl)acetic acid]",< 1000 nM
19,"NCc1cccc(-c2cc(COc3ccccc3CC(=O)O)cc3c2ccn3C(F)(F)F)c1 [Compound 517d, 2-(2-((4-(3-(aminomethyl)phenyl)-1-(trifluoromethyl)-1H-indol-6-yl)methoxy)phenyl)acetic acid]",< 1000 nM
20,"NCc1cc(-c2c(F)c(COc3ccccc3CC(=O)O)cc3ccoc23)ccn1 [Compound 519c, 2-(2-((7-(2-(aminomethyl)pyridin-4-yl)-6-fluorobenzofuran-5-yl)methoxy)phenyl)acetic acid]",< 1000 nM
21,"NCc1cccc(-c2cc(COc3cc(F)ccc3CC(=O)O)cc3cc(F)oc23)c1 [Compound 520c, 2-(2-((7-(3-(aminomethyl)phenyl)-2-fluorobenzofuran-5-yl)methoxy)-4-fluorophenyl)acetic acid]",< 1000 nM

# Other lines, results leading:
row,IC50,SMILES
1,< 1000 nM,"COc1ccc(CC(=O)O)c(OCc2cc(-c3cccc(CN)c3F)c3occ(C(F)(F)F)c3c2)c1 [Compound 489b, 2-(2-((7-(3-(aminomethyl)-2-fluorophenyl)-3-(trifluoromethyl)benzofuran-5-yl)methoxy)-4-methoxyphenyl)acetic acid]"
2,< 1000 nM,"COc1ccc(CC(=O)O)c(OCc2cc(-c3ccnc(CN)c3)c3oc(F)cc3c2)c1 [Compound 492b, 2-(2-((7-(2-(aminomethyl)pyridin-4-yl)-2-fluorobenzofuran-5-yl)methoxy)-4-methoxyphenyl)acetic acid]"
3,< 1000 nM,"COc1ccc(OCc2cc(-c3cccc(CN)c3)c3ccn(C(C)C)c3c2)c(CC(=O)O)c1 [Compound 493b, 2-(2-((4-(3-(aminomethyl)phenyl)-1-isopropyl-1H-indol-6-yl)methoxy)-5-methoxyphenyl)acetic acid]"
4,< 1000 nM,"CC(C)n1ccc2c(-c3ccnc(CN)c3)cc(COc3ccc(F)cc3CC(=O)O)cc21 [Compound 497d, 2-(2-((4-(2-(aminomethyl)pyridin-4-yl)-1-isopropyl-1H-indol-6-yl)methoxy)-5-fluorophenyl)acetic acid]"
5,< 1000 nM,"COc1ccc(CC(=O)O)c(OCc2cc(-c3ccnc(CN)c3)c3occ(C(F)(F)F)c3c2)c1 [Compound 499b, 2-(2-((7-(2-(aminomethyl)pyridin-4-yl)-3-(trifluoromethyl)benzofuran-5-yl)methoxy)-4-methoxyphenyl)acetic acid]"
6,< 1000 nM,"NCc1cccc(-c2cc(COc3ccccc3CC(=O)O)cc3[nH]c(C(F)(F)F)cc23)c1F [Compound 501f, 2-(2-((4-(3-(aminomethyl)-2-fluorophenyl)-2-(trifluoromethyl)-1H-indol-6-yl)methoxy)phenyl)acetic acid]"
7,< 1000 nM,"NCc1cccc(-c2cc(COc3c(F)cccc3CC(=O)O)cc3ccoc23)c1F [Compound 502c, 2-(2-((7-(3-(aminomethyl)-2-fluorophenyl)benzofuran-5-yl)methoxy)-3-fluorophenyl)acetic acid]"
8,1000 to 10000 nM,"NCc1cccc(-c2cc(NC(=O)[C@@H]3CCCN3C(=O)NCc3cccc(Cl)c3F)cc3ccoc23)c1 [Compound 507f, (S)—N2-(7-(3-(aminomethyl)phenyl)benzofuran-5-yl)-N1-(3-chloro-2-fluorobenzyl)pyrrolidine-1,2-dicarboxamide]"
9,< 1000 nM,"CC(=O)c1ccc(CC(=O)O)c(OCc2cc(-c3ccnc(CN)c3)c3occc3c2)c1 [Compound 511e, 2-(4-acetyl-2-((7-(2-(aminomethyl)pyridin-4-yl)benzofuran-5-yl)methoxy)phenyl)acetic acid]"
10,< 1000 nM,"COc1cccc(CC(=O)O)c1OCc1cc(-c2ccnc(CN)c2)c2occc2c1 [Compound 512d, 2-(2-((7-(2-(aminomethyl)pyridin-4-yl)benzofuran-5-yl)methoxy)-3-methoxyphenyl)acetic acid]"
11,< 1000 nM,"NCc1cccc(-c2c(F)c(COc3ccccc3CC(=O)O)cc3ccoc23)c1F [Compound 516c, 2-(2-((7-(3-(aminomethyl)-2-fluorophenyl)-6-fluorobenzofuran-5-yl)methoxy)phenyl)acetic acid]"
12,< 1000 nM,"NCc1cccc(-c2cc(COc3ccccc3CC(=O)O)cc3c2ccn3C(F)(F)F)c1F [Compound 518b, 2-(2-((4-(3-(aminomethyl)-2-fluorophenyl)-1-(trifluoromethyl)-1H-indol-6-yl)methoxy)phenyl)acetic acid]"
13,< 1000 nM,"NCc1cccc(-c2cc(COc3cc(F)ccc3CC(=O)O)cc3cc(F)oc23)c1F [Compound 521b, 2-(2-((7-(3-(aminomethyl)-2-fluorophenyl)-2-fluorobenzofuran-5-yl)methoxy)-4-fluorophenyl)acetic acid]"
